# Source: patent publication US20110275103A1, “EMISSION RATIOMETRIC REPORTERS OF MEMBRANE PDK1 ACTIVATION” (THE JOHNS HOPKINS UNIVERSITY, priority 2010, published 2011)
# Entries after “also recorded” stand apart in the source; their conditions may differ.
# What was measured:
# Type in all cases: cell-based
# PDK1 [1] = test: FRET emission ratio imaging of PDK1 activation reporters in HeLa cells; conditions: serum-starved HeLa cells; 100 ng/ml EGF
# Source text: (§1) PARE was generated by sandwiching full-length PDK1 between a FRET pair, ECFP and Citrine. Lyn-PARE and PARE-Kras were generated by the addition of the N-terminal portion of the Lyn kinase gene (GCIKSKRKDKD; SEQ ID NO:6) at the 5′ end and a C(A)2X tag (C is cysteine, A is an aliphatic amino acid, and X is any amino acid) at the 3′ end (KKKKKSKTKCVIM; SEQ ID NO:7) of PARE, respectively. Lyn-PARE R472/474A was generated by site-directed mutagenesis. PTEN A4 (fused with a C-terminal fluorescent protein) was targeted to raft and non-raft regions of plasma membrane with the same set of targeting motifs. All of the constructs were generated in a modified version of the mammalian expression vector pcDNA 3.
# (§2) Cells were plated on sterilized glass coverslips in 35 mm dishes and were grown to 40% confluency in medium at 37° C. with 5% CO2, then transfected with Lipofectamine 2000. In the case of NIH 3T3 and HeLa cells, the cells were serum-starved for 24 h. For imaging, cells were washed with Hanks' balanced salt solution (HBSS) and imaged in the dark at room temperature. Images were acquired on a Zeiss Axiovert 200M microscope with a cooled charge-coupled device camera, as previously described (8). Dual-emission ratio imaging was performed with a 420DF20 excitation filter, a 450DRLP dichroic mirror, and two emission filters. For CFP and YFP, 475DF40 and 535DF25, respectively, were used. Exposure times were 50-500 ms. Images were taken every 30 s. Imaging data were analyzed with Metafluor 6.2 software (Universal Imaging, Downingtown, Pa.). Fluorescence images were background-corrected by deducting the background (regions with no cells) from the emission intensities of CFP or YFP. Traces were normalized by taking the emission ratio before addition of drugs as 1.
# PDK1 [2] = test: FRET emission ratio imaging of PDK1 activation reporters (PARE, Lyn-PARE, PARE-Kras) in NIH 3T3 cells; conditions: for emission ratio change of the non-raft-targeted reporter (PARE-Kras) / emission ratio change of the untargeted reporter (PARE) / response of the Lyn-PARE R472/474A mutant reporter / increase in the yellow-to-cyan emission ratio of the raft-targeted PDK1 activity reporter (Lyn-PARE): serum-starved NIH 3T3 cells
# Source text: as §1, §2
# PTEN = test: Sucrose density gradient fractionation of crude plasma membranes and anti-PTEN Western blot, 3T3-L1 adipocytes
# Method: Cells were washed with ice-cold PBS and then lysed in RIPA lysis buffer containing protease inhibitor cocktail (Roche), 1 mM PMSF, 1 mM NaVO4, 1 mM NaF and 25 nM calyculin A. Total cell lysates were incubated on ice for 30 min, then centrifuged at 4° C. for 20 min. Total protein was separated with 7.5% SDS-PAGE and transferred to nitrocellulose membranes. The membranes were blocked with TBS containing 0.05% Tween-20 and 1% bovine serum albumin, then incubated with primary antibodies overnight at 4° C. After incubation with the appropriate horseradish peroxidase-conjugated secondary antibodies, the bands were visualized by enhanced chemiluminescence. The intensity of the bands was quantified with ImageJ software.
# Cells were rinsed twice with ice-cold PBS and harvested into 10 mM Tris (pH 7.4) with 150 mM NaCl, 5 mM EDTA, 2 mM PMSF, 2 mM NaVO4, 2 mM NaF, and 50 nM calyculin A, with protease inhibitor cocktail. The cells then were subjected to mechanical disruption with 15 strokes of a homogenizer. Homogenates were centrifuged at 2,300×g for 5 min at 4° C., and the supernatant was centrifuged at 18,000×g for 50 min at 4° C. (32). The resulting membrane pellets were resuspended in 10 mM Tris (pH 7.4) with 150 mM NaCl, 5 mM EDTA, 2 mM PMSF, 2 mM NaVO4, 2 mM NaF and 50 nM calyculinA A, with protease inhibitor cocktail and 1% Triton X-100, for sucrose density gradient fractionation. […]
# Akt [3] = test: FRET-based Akt activity reporter (AktAR) imaging in NIH 3T3 cells; conditions: pre-incubation with 50 μM C2-ceramide for 60 min
# Method: as §2
# PDK1 [4] = test: FRET emission ratio imaging of Lyn-PARE in 3T3 L1 preadipocytes; conditions: pre-incubation with 50 μM C2-ceramide
# Source text: as §1
# Cells were plated on sterilized glass coverslips in 35 mm dishes and were grown to 40% confluency in medium at 37° C. with 5% CO2, then transfected with Lipofectamine 2000. In the case of NIH 3T3 and HeLa cells, the cells were serum-starved for 24 h. For imaging, cells were washed with Hanks' balanced salt solution (HBSS) and imaged in the dark at room temperature. […] Imaging data were analyzed with Metafluor 6.2 software (Universal Imaging, Downingtown, Pa.). Fluorescence images were background-corrected by deducting the background (regions with no cells) from the emission intensities of CFP or YFP. […]
# Akt [5] = test: FRET-based Akt activity reporter (AktAR) imaging in 3T3 L1 preadipocytes; conditions: pre-incubation with 50 μM C2-ceramide
# Method: as §2
# 3T3 L1 adipocytes = test: Glucose uptake assay ([14C]2-deoxyglucose) in 3T3 L1 adipocytes; conditions: pre-incubation with 50 μM C2-ceramide for 60 min, 100 nM insulin, n=3
# Method: 3T3-L1 preadipocytes were grown to confluency in 10% calf serum/DMEM and stimulated with induction media (DMEM containing 10% fetal bovine serum, 1 μg/ml insulin, 1 μM dexamethasone, and 0.5 mM 3-isobutyl-1-methylxanthine) at 2 days post-confluency.
# The medium was changed to insulin medium (1 μg/ml) 2 days after induction. Two days later, the medium was replaced with 10% fetal bovine serum/DMEM and then changed every 2 days. Full differentiation was achieved by 8 days after induction.
# Adipocytes were incubated in Krebs-Ringer bicarbonate buffer supplemented with 30 mM HEPES, pH 7.4, with 0.5% BSA (KRBH/BSA) and 2.5 mM glucose for 3 h. The cells were washed once with PBS and incubated in BSA/KRH (25 mM HEPES-NaOH, pH 7.4, with 120 mM NaCl, 5 mM KCl, 1.2 mM MgSO4, 1.3 mM CaCl2, and 1.3 mM KH2PO4) without glucose for 15 min. The cells were then incubated with 100 nM insulin for 15 min. The assay was initiated by the addition of ^[14C]2-deoxyglucose (0.4 μCi/sample) and 5 mM glucose and terminated after 15 min by washing the cells three times with ice-cold PBS. Cells were solubilized in 1% Triton-100, and cell-associated radioactivity was determined by scintillation counting.
# Akt [6] = test: Membrane translocation of YFP-tagged Akt PH domain in NIH 3T3 cells
# Method: as §2
# Akt [7] = test: Membrane translocation of Akt PH domain in 3T3 L1 preadipocytes; conditions: pre-incubation with 50 μM C2-ceramide
# Method: as §2
# [8] = NIH 3T3 cells, pre-incubation with 50 μM C2-ceramide for 60 min
molecule,measurement,setting,value
"EGF: epidermal growth factor, purchased from Sigma-Aldrich (NSDSECPLSHDGYCLHDGVCMYIEALDKYACNCVVGYIGERCQYRDLKWWELR; UniProt P01133 971-1023, looked up)",emission ratio change of the non-raft-targeted reporter (PARE-Kras),PDK1 [1],but not PARE (n=4) or PARE-Kras
same,emission ratio change of the raft-targeted reporter (Lyn-PARE),PDK1 [1],induced an emission ratio increase
same,emission ratio change of the untargeted reporter (PARE),PDK1 [1],but not PARE
PDGF,emission ratio change of the non-raft-targeted reporter (PARE-Kras),PDK1 [2]; 50 ng/ml PDGF,no emission ratio change
same,emission ratio change of the untargeted reporter (PARE),PDK1 [2]; 50 ng/ml PDGF,no emission ratio change
same,response of the Lyn-PARE R472/474A mutant reporter,PDK1 [2]; 50 ng/ml PDGF,lack of response
same,increase in the yellow-to-cyan emission ratio of the raft-targeted PDK1 activity reporter (Lyn-PARE),"PDK1 [2]; 50 ng/ml PDGF, n=7",19±4%
CCCCCCCCCCCCC/C=C/[C@@H](O)[C@H](CO)NC(C)=O [C2-ceramide],increase in the amount of PTEN found in raft fractions,"PTEN; pre-incubation with 50 μM C2-ceramide, n=3",8.8±2.1 fold
same,level of PTEN in non-raft regions of adipocyte membranes,PTEN; pre-incubation with C2-ceramide,without changing the level of PTEN
same,effect on response of AktAR,Akt [3],abolished
same,effect on response of Lyn-PARE,PDK1 [4],abolished
same,effect on response of AktAR,Akt [5],abolished
same,effect on insulin-induced glucose uptake,3T3 L1 adipocytes,blocked insulin-induced glucose uptake; also recorded: inhibited insulin-induced glucose uptake
same,effect on membrane translocation of Akt PH domain,Akt [6]; [8],abolished
same,effect on response of Lyn-PARE,PDK1 [2]; [8],abolished
same,effect on membrane translocation of Akt PH domain,Akt [7],abolished
pervanadate [PV],emission ratio change of the non-raft-targeted reporter (PARE-Kras),PDK1 [2]; 100 μM PV,Only the raft-targeted PDK1 activity reporter showed an increase
same,emission ratio change of the untargeted reporter (PARE),PDK1 [2]; 100 μM PV,no emission ratio change
same,increase in the yellow-to-cyan emission ratio of the raft-targeted PDK1 activity reporter (Lyn-PARE),"PDK1 [2]; 100 μM PV, n=5",20.7±3.3%
same,response of the Lyn-PARE R472/474A mutant reporter,PDK1 [2]; PV,lack of response
OO [H2O2],effect on Akt PH membrane translocation suppressed by Lyn-PTEN A4,Akt [6]; 50 mM H2O2,restored the membrane translocation
same,effect on inhibition of Akt-PH translocation by non-raft-targeted PTEN A4 (PTEN A4-Kras),Akt [6]; H2O2 treatment,reversed
same,effect on Lyn-PARE response to PDGF suppressed by targeted PTEN A4,"PDK1 [2]; NIH 3T3 cells, 50 mM H2O2",restored
